Measured values as given in PubChem BioAssay (NCI).
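In this assay, cells in 96-well plates receive the compound at five concentrations for 48 hours. Endpoints are linearly interpolated between the surrounding concentrations. GI50 marks 50% less growth. Definition used: TGI = concentration required for complete inhibition of growth.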

What was measured:
Experiment in all cases: DTP human tumour cell line panel, 48 h
[1] = system: A498 renal
[2] = system: SK-OV-3 ovarian
[3] = system: MOLT-4 leukemia
[4] = system: SF-539 CNS
[5] = system: NCI-H460 lung
[6] = system: DU-145 prostate
[7] = system: HOP-62 NSCLC
[8] = system: ACHN renal
[9] = system: UACC-62 melanoma
[10] = system: NCI/ADR-RES ovarian
[11] = system: T-47D breast
[12] = system: BT-549 breast
[13] = system: M14 melanoma
[14] = system: CCRF-CEM leukemia
[15] = system: SW-620 colon
[16] = system: SN12C renal
[17] = system: OVCAR-8 ovarian
[18] = system: HT29 colon
[19] = system: MCF7 breast
[20] = system: HCC-2998 colon
[21] = system: 786-0 renal
[22] = system: SK-MEL-28 melanoma
[23] = system: NCI-H23 lung
[24] = system: NCI-H226 lung
[25] = system: U251 CNS
[26] = system: UO-31 renal
[27] = system: RPMI-8226 leukemia
[28] = system: HOP-92 NSCLC
[29] = system: HL-60(TB) leukemia
[30] = system: NCI-H522 lung
[31] = system: LOX IMVI melanoma
[32] = system: EKVX NSCLC
[33] = system: SF-268 CNS
[34] = system: SR leukemia
[35] = system: TK-10 renal
[36] = system: SK-MEL-2 melanoma
[37] = system: SF-295 CNS
[38] = system: OVCAR-5 ovarian
[39] = system: SNB-75 CNS
[40] = system: HS 578T breast
[41] = system: HCT-116 colon
[42] = system: A549 NSCLC
[43] = system: UACC-257 melanoma
[44] = system: RXF 393 renal
[45] = system: OVCAR-3 ovarian
[46] = system: IGROV1 ovarian
[47] = system: MALME-3M melanoma
[48] = system: COLO 205 colon
[49] = system: MDA-MB-435
[50] = system: MDA-MB-231 breast
[51] = system: SK-MEL-5 melanoma
[52] = system: CAKI-1 renal
[53] = system: OVCAR-4 ovarian
[54] = system: SNB-19 CNS

Nc1ncn([C@H]2C[C@H](OP(=O)(O)OC[C@H]3O[C@@H](n4cnc5c(=O)[nH]c(N)nc54)C[C@@H]3O)[C@@H](CO)O2)c(=O)n1
GI50 [1]: > 100 µM
TGI [1]: > 100 µM
GI50 [2]: > 100 µM
TGI [2]: > 100 µM
GI50 [3]: > 100 µM
TGI [3]: > 100 µM
GI50 [4]: > 100 µM
TGI [4]: > 100 µM
GI50 [5]: 7.44 µM
TGI [5]: > 100 µM
GI50 [6]: > 100 µM
TGI [6]: > 100 µM
GI50 [7]: 9.27 µM
TGI [7]: > 100 µM
GI50 [8]: 38.4 µM
TGI [8]: > 100 µM
GI50 [9]: > 100 µM
TGI [9]: > 100 µM
GI50 [10]: > 100 µM
TGI [10]: > 100 µM
GI50 [11]: > 100 µM
TGI [11]: > 100 µM
GI50 [12]: > 100 µM
TGI [12]: > 100 µM
GI50 [13]: > 100 µM
TGI [13]: > 100 µM
GI50 [14]: 9.01 µM
TGI [14]: > 100 µM
GI50 [15]: > 100 µM
TGI [15]: > 100 µM
GI50 [16]: 51.4 µM
TGI [16]: > 100 µM
GI50 [17]: 26.6 µM
TGI [17]: > 100 µM
GI50 [18]: 47.1 µM
TGI [18]: > 100 µM
GI50 [19]: 51.9 µM
TGI [19]: > 100 µM
GI50 [20]: > 100 µM
TGI [20]: > 100 µM
GI50 [21]: 71.8 µM
TGI [21]: > 100 µM
GI50 [22]: > 100 µM
TGI [22]: > 100 µM
GI50 [23]: > 100 µM
TGI [23]: > 100 µM
GI50 [24]: > 100 µM
TGI [24]: > 100 µM
GI50 [25]: > 100 µM
TGI [25]: > 100 µM
GI50 [26]: > 100 µM
TGI [26]: > 100 µM
GI50 [27]: > 100 µM
TGI [27]: > 100 µM
GI50 [28]: > 100 µM
TGI [28]: > 100 µM
GI50 [29]: > 100 µM
TGI [29]: > 100 µM
GI50 [30]: > 100 µM
TGI [30]: > 100 µM
GI50 [31]: 57 µM
TGI [31]: > 100 µM
GI50 [32]: > 100 µM
TGI [32]: > 100 µM
GI50 [33]: > 100 µM
TGI [33]: > 100 µM
GI50 [34]: > 100 µM
TGI [34]: > 100 µM
GI50 [35]: > 100 µM
TGI [35]: > 100 µM
GI50 [36]: > 100 µM
TGI [36]: > 100 µM
GI50 [37]: > 100 µM
TGI [37]: > 100 µM
GI50 [38]: > 100 µM
TGI [38]: > 100 µM
GI50 [39]: > 100 µM
TGI [39]: > 100 µM
GI50 [40]: > 100 µM
TGI [40]: > 100 µM
GI50 [41]: 23 µM
TGI [41]: > 100 µM
GI50 [42]: 82.9 µM
TGI [42]: > 100 µM
GI50 [43]: > 100 µM
TGI [43]: > 100 µM
GI50 [44]: 12.2 µM
TGI [44]: > 100 µM
GI50 [45]: > 100 µM
TGI [45]: > 100 µM
GI50 [46]: > 100 µM
TGI [46]: > 100 µM
GI50 [47]: > 100 µM
TGI [47]: > 100 µM
GI50 [48]: 41.4 µM
TGI [48]: > 100 µM
GI50 [49]: > 100 µM
TGI [49]: > 100 µM
GI50 [50]: > 100 µM
TGI [50]: > 100 µM
GI50 [51]: > 100 µM
TGI [51]: > 100 µM
GI50 [52]: > 100 µM
TGI [52]: > 100 µM
GI50 [53]: > 100 µM
TGI [53]: > 100 µM
GI50 [54]: > 100 µM
TGI [54]: > 100 µM
